Experimental data reported in publication PMC4810081, “Venetoclax (ABT-199) Might Act as a Perpetrator in Pharmacokinetic Drug–Drug Interactions” (Pharmaceutics, 2016).

Assays:
CYP2B6 = molecular target: T1, CYP2B6 (Homo sapiens, UniProt P20813); assay: CYP2B6 inhibition, CYP2B6/EFC High Throughput Inhibitor Screening Kit; assay type: in vitro ADME
T1 construct: purchased Becton Dickinson Biosciences (Heidelberg, Germany)
Protocol: (§1) Inhibition studies for CYP2B6, CYP2D6, CYP2C19 and CYP3A4 were performed with the CYP2B6/EFC, CYP2D6/AMMC, the CYP2C19/CEC, and the CYP3A4/BFC High Throughput Inhibitor Screening Kit according to the manufacturer’s instructions. The kits contain the respective recombinant CYP and fluorogenic substrates, which are blocked dyes emitting a fluorescence signal when cleaved by the enzyme. For testing CYP1A2 inhibition, the P450-Glo CYP1A2 Screening System was used according to the manufacturer’s instructions. The kit contains the luminogenic CYP1A2 substrate luciferin-ME, which is converted by CYP1A2 into luciferin-generating light when incubated with the luciferin detection reagent of the kit. Eight concentrations of venetoclax in duplicates (0.009–20 µM) were tested in the fluorescence assays, and eight concentrations in triplicate (0.05–100 µM) were tested for the luminogenic assay. Each experiment was conducted in triplicate.

CYP3A4 [1] = molecular target: T2, CYP3A4 (Homo sapiens, UniProt P08684); assay: CYP3A4 inhibition, CYP3A4/BFC High Throughput Inhibitor Screening Kit; assay type: in vitro ADME; details: recombinant CYP, fluorogenic substrate
T2 construct: purchased Becton Dickinson Biosciences (Heidelberg, Germany)
T2 sequence (P08684 whole entry): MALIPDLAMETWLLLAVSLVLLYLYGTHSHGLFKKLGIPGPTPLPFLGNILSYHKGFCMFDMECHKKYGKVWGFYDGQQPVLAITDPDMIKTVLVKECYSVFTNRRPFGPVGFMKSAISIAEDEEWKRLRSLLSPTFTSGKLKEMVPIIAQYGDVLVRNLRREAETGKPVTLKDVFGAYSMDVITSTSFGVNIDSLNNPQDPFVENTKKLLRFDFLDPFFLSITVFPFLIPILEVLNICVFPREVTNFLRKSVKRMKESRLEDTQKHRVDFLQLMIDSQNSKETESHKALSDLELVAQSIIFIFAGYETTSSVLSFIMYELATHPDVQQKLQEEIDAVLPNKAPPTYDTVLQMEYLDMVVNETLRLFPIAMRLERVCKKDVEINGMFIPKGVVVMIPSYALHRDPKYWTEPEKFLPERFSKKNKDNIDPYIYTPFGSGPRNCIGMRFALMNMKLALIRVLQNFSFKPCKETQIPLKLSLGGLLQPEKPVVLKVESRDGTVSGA
Protocol: as §1

[2] = Growth inhibition assay in MDCKII-BCRP cells; assay type: cell-based; details: dog, MDCKII-BCRP cells (BCRP over-expressing)
Protocol: MDCKII cells. […] Moreover, MDCKII-BCRP cells were used to assess BCRP inhibition by venetoclax. MDCKII over-expressing cell lines were kindly provided by A. H. Schinkel and P. Borst (Amsterdam, The Netherlands). The parental cell line MDCKII (available at ATCC, Manassas, VA, USA) was used as a control. The cells were cultured in Dulbecco’s Modified Eagle’s Medium (DMEM) containing 10% FCS, 2 mM of glutamine, 100 U/mL of penicillin, and 100 µg/mL of streptomycin sulfate. Growth inhibition assays in LS180 cells were conducted to determine suitable maximum concentrations for the induction assay without profound antiproliferative effects. Proliferation was quantified by crystal violet staining of the surviving cells as described previously. […] Growth inhibition assays in MDCKII, and their MRP2 or BCRP over-expressing counterparts ([…], MDCKII-BCRP) and in LLC-PK1 and the corresponding P-gp over-expressing cell line L-MDR1 were conducted to evaluate whether venetoclax sustains its efficacy in MDR cell lines.

[3] = set-up: method as in PMID 26639348, PMID 22184378, PMID 27520294; details: cited from earlier work
CYP3A4 [4] = assay: Induction assay, CYP3A4 mRNA by real-time RT-PCR in LS180 cells; assay type: in vitro ADME, human; details: four days, 0.01–10 µM
Protocol: (§2) LS180 cells. The human colon adenocarcinoma cell line LS180 (available at ATCC, Manassas, VA, USA) is one of the standard models for investigating pregnane X receptor (PXR) and aryl hydrocarbon receptor (AhR) mediated induction and was thus used for induction experiments. Cells were cultured under standard cell culture conditions with DMEM supplemented with 10% FCS, 2 mM of glutamine, 100 U/mL of penicillin, 100 µg/mL of streptomycin sulfate, and 0.1 mM of nonessential amino acids.
(§3) For the induction experiments, LS180 cells were seeded in 75 cm^2 culturing flasks and incubated for three days. […]
(§4) RNA was isolated using the GenElute™ Mammalian Total RNA Miniprep Kit, and cDNA was synthesized with the RevertAid™ H Minus First Strand cDNA Synthesis Kit according to the manufacturer's instructions. mRNA expression was quantified by real-time RT-PCR with the LightCycler® 480 (Roche Applied Science, Mannheim, Germany) as described previously. […] Data were evaluated via calibrator-normalized relative quantification with efficiency correction using the LightCycler® 480 software version 1.5 (Roche Applied Science, Mannheim, Germany). […] The following target genes were quantified: CYP1A1, CYP1A2, CYP3A4, ABCB1, ABCC2, ABCG2, SLCO1B1 (coding for OATP1B1), UDP-glucuronosyltransferase 1A3 (UGT1A3), and UGT1A9.

P-gp = assay: Western blot of P-gp protein expression in LS180 cells; assay type: in vitro ADME, human; details: four days, at 1 and 10 µM
Protocol: For the induction experiments, LS180 cells were seeded in 75 cm^2 culturing flasks and incubated for three days. Cells were then treated with a culture medium containing venetoclax (0.01–10 µM) in quintuplicate for four consecutive days. Rifampicin (20 µM) served as a positive control for PXR-driven genes and culture medium as a negative control. All incubation solutions were adjusted to 0.02% DMSO. After harvesting, cells were split for RNA and protein extraction.
To exemplarily verify the effects of venetoclax on mRNA expression, protein expressions of P-gp and CYP1A2 were analyzed in triplicate by SDS polyacrylamide gel electrophoresis (SDS-PAGE) and Western blotting. In brief, cell lysates containing 20 µg protein were mixed with 5× sample buffer (containing Tris–HCl, SDS, DTT, bromophenol blue, and glycerol) and subjected to 10% SDS-PAGE. Afterwards, proteins were electrotransferred to nitrocellulose nitrate membranes. Blots were blocked by incubation for 20–40 min with 5% Slim-Fast® (w/v) in phosphate-buffered saline containing 0.1% Tween®20. […] Bands were visualized by enhanced chemiluminescence using the SuperSignal®West Pico Chemiluminescent Substrate Kit and recorded by FluorChem Q SA AlphaView Version 3.2.2, Cell Biosciences (Santa Clara, CA, USA).

ABCC2 = assay: Induction assay, ABCC2 mRNA by real-time RT-PCR in LS180 cells; assay type: in vitro ADME, human; details: four days, 0.01–10 µM
Protocol: as §2, §3, §4

CYP1A2 = molecular target: T3, CYP1A2 (Homo sapiens, UniProt P05177); assay: CYP1A2 inhibition, P450-Glo CYP1A2 Screening System; assay type: in vitro ADME; details: luciferin-ME substrate, 0.05–100 µM tested
T3 construct: purchased Promega Corporation (Madison, WI, USA)
T3 sequence (P05177 whole entry): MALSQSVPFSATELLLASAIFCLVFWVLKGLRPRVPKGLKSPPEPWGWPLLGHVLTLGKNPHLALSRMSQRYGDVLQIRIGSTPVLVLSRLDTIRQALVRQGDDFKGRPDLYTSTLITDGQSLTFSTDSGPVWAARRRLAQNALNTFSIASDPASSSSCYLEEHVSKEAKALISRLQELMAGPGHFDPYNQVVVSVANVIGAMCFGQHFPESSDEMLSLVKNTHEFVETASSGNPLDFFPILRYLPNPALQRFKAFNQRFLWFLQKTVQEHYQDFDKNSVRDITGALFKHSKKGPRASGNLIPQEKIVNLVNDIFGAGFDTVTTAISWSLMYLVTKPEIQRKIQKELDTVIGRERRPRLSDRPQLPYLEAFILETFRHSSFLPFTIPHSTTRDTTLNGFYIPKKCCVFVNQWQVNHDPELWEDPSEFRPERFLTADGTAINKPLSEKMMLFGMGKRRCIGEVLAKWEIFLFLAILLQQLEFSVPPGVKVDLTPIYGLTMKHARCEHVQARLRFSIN
Protocol: as §1

T1 sequence (P20813 whole entry): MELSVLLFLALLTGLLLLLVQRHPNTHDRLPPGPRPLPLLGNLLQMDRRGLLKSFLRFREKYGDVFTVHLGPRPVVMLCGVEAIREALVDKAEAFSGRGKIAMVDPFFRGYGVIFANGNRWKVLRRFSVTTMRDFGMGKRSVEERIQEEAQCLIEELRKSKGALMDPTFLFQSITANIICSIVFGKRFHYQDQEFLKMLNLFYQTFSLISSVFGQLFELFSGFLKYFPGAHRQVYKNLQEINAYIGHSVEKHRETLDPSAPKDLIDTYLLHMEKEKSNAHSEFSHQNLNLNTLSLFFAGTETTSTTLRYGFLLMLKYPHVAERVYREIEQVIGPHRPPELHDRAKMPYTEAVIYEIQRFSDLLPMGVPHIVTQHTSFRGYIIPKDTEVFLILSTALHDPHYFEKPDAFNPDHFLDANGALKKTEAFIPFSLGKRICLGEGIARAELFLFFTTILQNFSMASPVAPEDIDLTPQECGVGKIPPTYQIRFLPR

For `CC1(C)CCC(CN2CCN(c3ccc(C(=O)NS(=O)(=O)c4ccc(NCC5CCOCC5)c([N+](=O)[O-])c4)c(Oc4cnc5[nH]ccc5c4)c3)CC2)=C(c2ccc(Cl)cc2)C1` [Venetoclax], the “increase of CYP2B6 activity” value (CYP2B6; at 20 µM) was 1.7 fold, the “IC50 CYP2B6 inhibition” value (CYP2B6; recombinant CYP, fluorogenic substrate, 0.009–20 µM tested) was “activation” and the IC50 (CYP3A4 [1]) was 7.2 ± 3.2 µM. For the same compound, the IC50 [2] was 15.7 ± 0.4 µM, the Therapeutic plasma concentrations [3] was “about 5 µM” and the “mRNA expression of CYP3A4” value (CYP3A4 [4]) was “unchanged”. For the same compound, the P-gp protein expression (P-gp) was “suppression”, the “mRNA expression of ABCC2” value (ABCC2) was “unchanged” and the “IC50 CYP1A2 inhibition” value (CYP1A2) was “no inhibition”.
